Laboratory results: patent publication US10442796B2, “2,3,5-substituted thiophene compound as protein kinase inhibitor” (KOREA INSTITUTE OF SCIENCE AND TECHNOLOGY, priority 2016, dated 2019)
Where a chain is given by its changes, count along the chain named. Where a name gives a salt, the structure may show the parent alone.

Key:
Test in all cases: Growth inhibitory activity against Ba/F3 cell line
Format in all cases: cell-based
[1] = test system: Parental Ba/F3 cells; conditions: BaF3; Parental Ba/F3 with mouse IL-3 1 ng/mL; 72 hours; cell titer glo
Procedure: (§1) A Ba/F3 cell line expressing an FLT3 mutation gene was cultured in a culture solution including 90% RPMI, 10% FBS, and an antibiotic (Welgene). 100 uL of the Ba/F3 cell line was put into each of 5,000 wells of a TC-treated 96 well plate (SPL), and then 1 uL of a test compound diluted in dimethylsulfoxide (diluted for each 3 paint from a concentration of 1 mM, total 10 concentrations) was each injected thereinto. Thereafter, the resulting cell lines were incubated in a cell culture incubator for 72 hours. 50 uL of a cell titer glo (Promega) solution was added thereto, the resulting mixture was stored at room temperature for 10 minutes, and then the light emission intensity was measured by using a reader (Envision, PerkinElmer). The light emission intensity was shown as a graph for each final concentration of the test compound, and the GI50 value was obtained by using a Prism 5.0 (GraphPad) software.
A parental Ba/F3 cell line having no FLT3 mutation gene was cultured by using a culture solution supplemented with mouse IL-3 (R&D Systems), such that a final concentration became 1 ng/mL in the culture solution including 90% RPMI, 10% FBS, and an antibiotic (Welgene). The activity was measured by a method which is the same as described above.

[2] = biological target: T1, FLT3-ITD Ba/F3 cells (Homo sapiens, UniProt P36888, cells depend on it, form not given); conditions: Ba/F3 expressing FLT3-ITD; 72 hours; cell titer glo; read-out: IC50 (uM) FLT3-ITD
T1 sequence (P36888 1-993): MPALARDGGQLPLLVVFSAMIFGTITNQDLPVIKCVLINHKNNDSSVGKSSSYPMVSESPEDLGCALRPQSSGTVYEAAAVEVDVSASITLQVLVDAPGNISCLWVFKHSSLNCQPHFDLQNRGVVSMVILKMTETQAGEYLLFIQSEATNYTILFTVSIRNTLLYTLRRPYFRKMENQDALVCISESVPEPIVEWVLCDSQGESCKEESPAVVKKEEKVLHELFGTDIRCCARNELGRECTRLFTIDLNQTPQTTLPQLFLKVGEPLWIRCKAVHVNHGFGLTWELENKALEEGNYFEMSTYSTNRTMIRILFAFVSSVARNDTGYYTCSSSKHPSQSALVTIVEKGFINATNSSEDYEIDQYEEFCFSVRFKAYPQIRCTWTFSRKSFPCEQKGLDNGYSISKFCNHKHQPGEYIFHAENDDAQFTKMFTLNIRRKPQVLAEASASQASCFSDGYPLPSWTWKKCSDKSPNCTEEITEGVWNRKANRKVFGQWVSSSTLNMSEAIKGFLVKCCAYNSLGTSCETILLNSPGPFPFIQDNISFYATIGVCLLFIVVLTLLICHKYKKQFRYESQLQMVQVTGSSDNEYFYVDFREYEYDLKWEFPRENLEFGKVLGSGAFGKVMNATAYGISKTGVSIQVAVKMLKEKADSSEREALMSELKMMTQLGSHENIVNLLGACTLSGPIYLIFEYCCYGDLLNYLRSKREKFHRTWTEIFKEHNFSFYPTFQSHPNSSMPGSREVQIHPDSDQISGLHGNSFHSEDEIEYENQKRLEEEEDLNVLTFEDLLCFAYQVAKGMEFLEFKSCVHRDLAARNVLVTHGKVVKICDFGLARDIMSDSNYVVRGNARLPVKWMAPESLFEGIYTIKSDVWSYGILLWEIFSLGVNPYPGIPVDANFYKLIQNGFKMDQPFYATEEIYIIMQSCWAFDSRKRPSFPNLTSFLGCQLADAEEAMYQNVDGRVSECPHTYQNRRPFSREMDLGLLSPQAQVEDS
Procedure: as §1

[3] = biological target: T2, FLT3-ITD-F691L-D835Y Ba/F3 cells (Homo sapiens, UniProt P36888, F691L/D835Y, cells depend on it, form not given); conditions: Ba/F3 expressing FLT3-ITD-F691L-D835Y; 72 hours; cell titer glo; read-out: IC50 (uM) FLT3-ITD-F691L-D835Y
T2 sequence (P36888 1-993 F691L/D835Y): T1 sequence (P36888 1-993) with F691L, D835Y
Procedure: as §1

GI50 [2] [µM]	GI50 [3] [µM]	Structure (SMILES)	IC50 [1] [µM]
0.023	0.006	NC(=O)Nc1cc(C#Cc2cccc(F)c2)sc1C(=O)N[C@H]1CCCCNC1 [Example 50, (S)—N-(azepan-3-yl)-5-((3-fluorophenyl)ethynyl)-3-ureidothiophene-2-carboxamide]	7.8
0.001	< 0.001	NC(=O)Nc1cc(C#Cc2ccc(Cl)cc2)sc1C(=O)N[C@H]1CCCNC1 [Example 8, (S)-5-((4-chlorophenyl)ethynyl)-N-(piperidin-3-yl)-3-ureidothiophene-2-carboxamide]	0.36
< 0.005	< 0.004	NC(=O)Nc1cc(C#Cc2cccc([N+](=O)[O-])c2)sc1C(=O)N[C@H]1CCCNC1 [Example 5, (S)-5-((3-nitrophenyl)ethynyl)-N-(piperidin-3-yl)-3-ureidothiophene-2-carboxamide]	2.06
0.006	0.004	NC(=O)Nc1cc(C#Cc2ccc(C(F)(F)F)cc2)sc1C(=O)N[C@H]1CCCNC1 [Example 16, ((S)—N-(piperidin-3-yl)-5-((4-(trifluoromethyl)phenyl)ethynyl)-3-ureidothiophene-2-carboxamide trifluoroacetate]	14.8
0.027	0.04	CS(=O)(=O)N1CCC(n2cc(C#Cc3cc(NC(N)=O)c(C(=O)N[C@H]4CCCCNC4)s3)cn2)CC1 [Example 47, (S)—N-(azepan-3-yl)-5-((1-(1-(methylsulfonyl)piperidin-4-yl)-1H-pyrazol-4-yl)ethynyl)-3-ureidothiophene-2-carboxamide trifluoroacetate]	> 5
3.73	1.24	Cn1cc(C#Cc2cc(NC(N)=O)c(C(=O)NC3CCNC3)s2)cn1 (stereo not drawn) [Example 39, 5-((1-methyl-1H-pyrazol-4-yl)ethynyl)-N-(pyrrolidin-3-yl)-3-ureidothiophene-2-carboxamide trifluoroacetate]	> 100
0.005	0.004	NC(=O)Nc1cc(C#Cc2ccccn2)sc1C(=O)N[C@H]1CCCNC1 [Example 10, (S)—N-(piperidin-3-yl)-5-(pyridin-2-ylethynyl)-3-ureidothiophene-2-carboxamide]	4.62
< 0.001	< 0.001	NC(=O)Nc1cc(C#Cc2ccccc2)sc1C(=O)N[C@H]1CCCNC1 [Example 2, (S)-5-(phenylethynyl)-N-(piperidin-3-yl)-3-ureidothiophene-2-carboxamide]	0.159
0.01	0.006	CCn1cc(C#Cc2cc(NC(N)=O)c(C(=O)N[C@H]3CCCCNC3)s2)cn1 [Example 43, (S)—N-(azepan-3-yl)-5-((l-ethyl-1H-pyrazol-4-yl)ethynyl)-3-ureidothiophene-2-carboxamide trifluoroacetate]	4.1
0.002	0.004	NC(=O)Nc1cc(C#Cc2ccc(F)nc2)sc1C(=O)N[C@H]1CCCNC1 [Example 13, (S)-5-((6-fluoropyridin-3-yl)ethynyl)-N-(piperidin-3-yl)-3-ureidothiophene-2-carboxamide]	2.22
0.017	0.031	CC(=O)N1CCC(n2cc(C#Cc3cc(NC(N)=O)c(C(=O)N[C@H]4CCCCNC4)s3)cn2)CC1 [Example 49]	> 5
0.037	0.027	NC(=O)Nc1cc(C#Cc2n[nH]c3ccccc23)sc1C(=O)N[C@H]1CCCNC1 [Example 12, (S)-5-((1H-indazol-3-yl)ethynyl)-N-(piperidin-3-yl)-3-ureidothiophene-2-carboxamide]	> 10
0.006	0.004	CC(C)n1cc(C#Cc2cc(NC(N)=O)c(C(=O)N[C@H]3CCCCNC3)s2)cn1 [Example 44, (S)—N-(azepan-3-yl)-5-((1-isopropyl-1H-pyrazol-4-yl)ethynyl)-3-ureidothiophene-2-carboxamide trifluoroacetate]	2.45
0.005	0.004	NC(=O)Nc1cc(C#Cc2ccsc2)sc1C(=O)N[C@H]1CCCCNC1 [Example 48, (S)—N-(azepan-3-yl)-5-(thiophen-3-ylethynyl)-3-ureidothiophene-2-carboxamide trifluoroacetate]	1.59
< 0.005	< 0.004	NC(=O)Nc1cc(C#Cc2cccnc2)sc1C(=O)N[C@H]1CCCNC1 [Example 3, (S)—N-(piperidin-3-yl)-5-(pyridin-3-ylethynyl)-3-ureidothiophene-2-carboxamide]	6.46
0.016	0.01	NC(=O)Nc1cc(C#Cc2ccncc2)sc1C(=O)N[C@H]1CCCNC1 [Example 4, (S)—N-(piperidin-3-yl)-5-(pyridin-4-ylethynyl)-3-ureidothiophene-2-carboxamide]	24
0.003	< 0.001	COC(=O)c1ccc(C#Cc2cc(NC(N)=O)c(C(=O)N[C@H]3CCCNC3)s2)cc1 [Example 18, methyl (S)-4-((5-(piperidin-3-ylcarbamoyl)-4-ureidothiophen-2-yl)ethynyl)benzoate trifluoroacetate]	0.454
0.028	0.009	Cn1cc(C#Cc2cc(NC(N)=O)c(C(=O)N[C@H]3CCCNC3)s2)cn1 [Example 15, (S)-5-((l-methyl-1H-pyrazol-4-yl)ethynyl)-N-(piperidin-3-yl)-3-ureidothiophene-2-carboxamide trifluoroacetate]	34.6
< 0.001	< 0.001	NC(=O)Nc1cc(C#Cc2ccc(F)c(F)c2)sc1C(=O)N[C@H]1CCCNC1 [Example 14, (S)-5-((3,4-difluorophenyl)ethynyl)-N-(piperidin-3-yl)-3-ureidothiophene-2-carboxamide]	0.269
0.359	0.149	NC(=O)Nc1cc(CCc2cccc(F)c2)sc1C(=O)N[C@H]1CCCNC1 [Example 53]	44.5
